Results reported in patent US20250186491A1, “COMPOSITIONS AND METHODS FOR TREATING CANCER WITH CHIMERIC TIM RECEPTORS IN COMBINATION WITH INHIBITORS OF POLY (ADP-RIBOSE) POLYMERASE” (CERO THERAPEUTICS HOLDINGS, INC., priority 2020, published 2025).
One block for each molecule: values may come before it.

Tests used:
A2780-mCh-NLS cells = conditions: FIG. 11A
Method: (§1) Flow cytometry measurement of surface PS: A2780-mCh-NLS cells were treated with […] Niraparib or with equivalent volume of DMSO (control). 48 hours later samples were trypsinized and stained using a Tim4-Fc followed by a fluorescently-labeled secondary antibody to the Tim4-Fc. Samples were immediately analyzed via Flow cytometry.

[1] = tested on: Kuramochi ovarian cancer cells; test: Kuramochi cell number under PARP inhibitors, tracked via imaging; type: cell-based, human; conditions: for elimination of the Kuramochi culture: by t=50 h; for EC50 values (ranking), number of Kuramochi cells: five PARP inhibitors compared
Method: Kuramochi ovarian cancer cells expressing an mCherry-NLS plasmid were incubated with 0.78 to 100 uM of the PARP inhibitor Niraparib. The number of Kuramochi cells/well was tracked via imaging.

Kuramochi cells = tested on: Kuramochi cells
Method: FIG. 8A: Flow cytometry measurement of surface PtdSer. Kuramochi cells were treated with 1.56 or 25 μM Niraparib or with equivalent volume of DMSO (control). 48 hours later samples were trypsinized and stained using a Tim4-Fc followed by a fluorescently-labeled secondary anti body to the Tim4-Fc. FIG. 8B: Kuramochi cells pre-treated for ˜20 hours with 1.56 μM Niraparib were co-cultured with pCTX133 and Untransduced CD4 T cells from donor 32 at a 2:1 T cell:Kuramochi ratio and a final Niraparib concentration of 1.56 μM. […] All data were collected via IncuCyte.
as §1

EC50 values (ranking), number of Kuramochi cells ([1]; t=50 h, FIG. 1B): most sensitive EC50 values
SMILES: NC(=O)c1cccc2cn(-c3ccc([C@@H]4CCCNC4)cc3)nc12 [Niraparib]
Tim4-Fc MFI (A2780-mCh-NLS cells; 1.56 and 25 μM Niraparib vs DMSO): increase | concentration at which anti-tumor effect begins (A2780-mCh-NLS cells): at least 1.56 μM | number of Kuramochi cells in culture ([1]; Niraparib 0.78 to 100 uM, t=50, FIG. 1A): decreases monotonically with increasing Niraparib concentration | elimination of the Kuramochi culture ([1]; FIG. 1B): almost eliminate the Kuramochi culture | membrane phospholipid symmetry (Ptd-Ser exposure) (Kuramochi cells; BRCA-2 mutated Kuramochi, brief exposure, 1.56 or 25 μM, FIG. 8A): elicits changes in membrane phospholipid symmetry, in a dose dependent manner | growth of Kuramochi cells (Kuramochi cells; FIG. 8A): effective in inhibiting growth | Tim4-Fc MFI (Kuramochi cells; Kuramochi, 25 μM Niraparib vs DMSO, FIG. 11B): increase | concentration at which anti-tumor effect begins (Kuramochi cells; Kuramochi, FIG. 11B): at least 25 μM

SMILES: CNCc1ccc(-c2[nH]c3cc(F)cc4c3c2CCNC4=O)cc1 [Rucaparib]
elimination of the Kuramochi culture ([1]; FIG. 1B): almost eliminate the Kuramochi culture

EC50 values (ranking), number of Kuramochi cells ([1]; t=50 h, FIG. 1B): most sensitive EC50 values
SMILES: Cn1ncnc1[C@H]1c2n[nH]c(=O)c3cc(F)cc(c23)N[C@@H]1c1ccc(F)cc1 [Talazoparib]

SMILES: C[C@]1(c2nc3c(C(N)=O)cccc3[nH]2)CCCN1 [Veliparib]
impact on the number of detected Kuramochi cells ([1]; t=50 h, of the five PARP inhibitors tested, FIG. 1B): least impact
